How the values were obtained:
Trypanosoma cruzi [1] = assay: Antitrypanosomal activity against bloodstream trypomastigote form of Trypanosoma cruzi Y assessed as reduction in parasite growth; assay type: functional, organism-based
[2] = Toxicity in CD-1 mouse infected with Trypanosoma cruzi Y MHOM/MX/1994/INC5 from blood stream trypomastigotes assessed as reduction in parasite growth by measuring lethal concentration; details: in vivo, 24 h
[3] = Toxicity in CD-1 mouse infected with Trypanosoma cruzi Y MHOM/MX/1994/NINOA from blood stream trypomastigotes assessed as reduction in parasite growth by measuring lethal concentration; details: in vivo, 24 h
Trypanosoma cruzi [4] = assay: Antitrypanosomal activity against bloodstream […] form of Trypanosoma cruzi Y; assay type: functional, organism-based
Trypanosoma cruzi [5] = assay: Trypanocidal activity against Trypanosoma cruzi Tulahuen-2 epimastigotes incubated for 24 hrs by Neubauer chamber method; assay type: functional, organism-based; details: Tulahuen-2, 24 h
Trypanosoma cruzi [6] = assay: Antitrypanosomal activity against bloodstream trypomastigote form of Trypanosoma cruzi Y; assay type: functional, organism-based
Trypanosoma cruzi [7] = assay: Antitrypanosomal activity against bloodstream trypomastigote form of Trypanosoma cruzi Y assessed as parasite growth inhibition incubated for 24 hrs by light microscopic analysis; assay type: functional, organism-based
Trypanosoma cruzi [8] = assay: Anti-trypanosomal activity against Trypanosoma cruzi Y trypomastigotes infected in mouse RAW264.7 cells assessed as inhibition of parasite release measured for 48 hrs; assay type: functional, organism-based; details: RAW264.7, 48 h
[9] = Toxicity in CD-1 mouse infected with Trypanosoma cruzi Y trypomastigotes assessed as mortality at 50 mg/kg/day, po pre-infected with parasite followed by compound addition and measured after 15 days relative to control; assay type: organism-based; details: in vivo, 360 h, time 15 day
Trypanosoma cruzi [10] = assay: Antitrypanosomal activity against Trypanosoma cruzi Y strain trypomastigotes Vero cells assessed as inhibition of parasite growth incubated for 24 hrs by Neubauer chamber based analysis; assay type: functional, organism-based
Trypanosoma cruzi [11] = assay: Antitrypanosomal activity against Trypanosoma cruzi Tulahuen amastigotes expressing Escherichia coli beta-galactosidase infected in LLC-MK2 cells incubated for 48 hrs; assay type: functional, organism-based; details: LLC-MK2, 48 h
[12] = Cytotoxicity against rhesus monkey LLC-MK2 cells; assay type: toxicity, cell-based, Macaca mulatta
Trypanosoma cruzi [13] = assay: Antitrypanosomal activity against Trypanosoma cruzi Tulahuen-2 infected in […] J774 cells assessed as inhibition of parasite proliferation; assay type: functional, organism-based; details: Tulahuen-2, J774
Trypanosoma cruzi [14] = assay: Trypanocidal activity against Trypanosoma cruzi NINOA epimastigotes incubated for 24 hrs by Neubauer chamber method; assay type: functional, organism-based

O=C(O)Cc1ccccc1/C=C/c1ccc2cccc(O)c2n1
EC50 (Trypanosoma cruzi [1]): 40.8 µM

Fc1c(F)c(F)c(CSc2nc3ccccc3s2)c(F)c1F
LC50 [2]: 185 µM | LC50 [3]: 147 µM

Fc1ccc(Nc2cnc3ccccc3c2)cc1
IC50 (Trypanosoma cruzi [4]): 10.9 µM | IC50 (Trypanosoma cruzi [5]): 11.3 µM | IC50 (Trypanosoma cruzi [6]): 616 µM

Clc1ccc(Nc2cnc3ccccc3c2)cc1
IC50 (Trypanosoma cruzi [4]): 25.8 µM | IC50 (Trypanosoma cruzi [5]): 12 µM | IC50 (Trypanosoma cruzi [6]): > 500 µM

CCOC(=O)c1csc(N/N=C/c2cccc(Cl)c2)n1
IC50 (Trypanosoma cruzi [7]): 4.44 µM

O=C1c2ccccc2C(=O)N1C/C(=N/NC(=S)Nc1ccccc1)c1ccc(F)cc1
IC50 (Trypanosoma cruzi [8]): 3.75 µM

COc1cccc(/C=C/c2ccc3cccc(O)c3n2)c1CC(=O)O
EC50 (Trypanosoma cruzi [1]): 36 µM

O=C(Cn1ccnc1[N+](=O)[O-])NCc1ccccc1 [BENZNIDAZOLE]
Activity [9]: 68.3% | IC50 (Trypanosoma cruzi [10]): 6.26 µM | IC50 (Trypanosoma cruzi [7]): 34.5 µM | IC50 (Trypanosoma cruzi [6]): 91 µM | IC50 (Trypanosoma cruzi [11]): 5.64 µM | CC50 at 48 h [12]: 156 µM

COc1cc(OC)cc(OC2=C(Oc3cc(OC)cc(OC)c3OC)C(=O)c3ccccc3C2=O)c1
IC50 (Trypanosoma cruzi [13]): 43 µM | IC50 (Trypanosoma cruzi [5]): 0.49 µM | IC50 (Trypanosoma cruzi [14]): 1.3 µM

Fc1cccc(F)c1CSc1nc2ccccc2s1
LC50 [2]: 260 µM | LC50 [3]: 110 µM

O=C(N/N=C/c1ccc(F)cc1)c1ccccc1
Activity [9]: 46.2%

NC(=S)N/N=C/c1c(C(F)(F)F)nn(-c2ccccc2)c1-c1ccc(Br)cc1
IC50 (Trypanosoma cruzi [6]): 30 µM

COc1ccc(-c2c(/C=N/N=C(/N)SC)c(C(F)(F)F)nn2-c2ccccc2)cc1
IC50 (Trypanosoma cruzi [6]): 19.1 µM

C/C(=N\N=C1/NC(=O)C(c2ccccc2)S1)c1cc(Cl)ccc1Cl (stereo not given)
IC50 (Trypanosoma cruzi [10]): 0.85 µM

O=C1c2ccccc2C(=O)c2c1oc1c2CCCC1
IC50 (Trypanosoma cruzi [6]): 0.129 µM

O=C1C(=O)c2c(oc3c2CCCC3)-c2ccccc21
IC50 (Trypanosoma cruzi [6]): 0.064 µM

NC(=S)N/N=C(\C=C\c1ccc(Cl)cc1)c1ccccc1
IC50 (Trypanosoma cruzi [11]): 12.2 µM

CCOC(=O)c1csc(N/N=C/c2ccco2)n1
IC50 (Trypanosoma cruzi [7]): 2.75 µM

Cc1ccc(OC2=C(Br)C(=O)c3ccccc3C2=O)c(C)c1
IC50 (Trypanosoma cruzi [13]): 51 µM | IC50 (Trypanosoma cruzi [5]): 0.45 µM | IC50 (Trypanosoma cruzi [14]): 1.69 µM

CS/C(N)=N\N=C\c1c(C(F)(F)F)nn(-c2ccccc2)c1-c1ccc(Br)cc1
IC50 (Trypanosoma cruzi [6]): 25.7 µM

CCOC(=O)c1csc(N/N=C(\C)c2ccccc2)n1
IC50 (Trypanosoma cruzi [7]): 2.83 µM

CC(C)(C)C1CCc2oc3c(c2C1)C(=O)c1ccccc1C3=O (stereo not given)
IC50 (Trypanosoma cruzi [6]): 0.033 µM

CCOC(=O)c1csc(N/N=C/c2ccccc2Br)n1
IC50 (Trypanosoma cruzi [7]): 0.83 µM

COC(=O)/C=C/c1ccc2c(c1)C(C(=O)OC)C(c1ccc(O)c(OC)c1)O2 (stereo not given)
IC50 (Trypanosoma cruzi [11]): 7.96 µM | CC50 at 48 h [12]: 0.86 µM

c1ccc(CSc2nc3ccccc3s2)cc1
LC50 [2]: 336 µM | LC50 [3]: 123 µM

Fc1cccc(Nc2cnc3ccccc3c2)c1
IC50 (Trypanosoma cruzi [4]): 22.8 µM | IC50 (Trypanosoma cruzi [5]): 13.5 µM | IC50 (Trypanosoma cruzi [6]): 420 µM

C/C(=N\N=C1\NC(=O)C(c2ccccc2)S1)c1ccc(Cl)cc1Cl (stereo not given)
IC50 (Trypanosoma cruzi [10]): 1.12 µM

O=C1c2ccccc2C(=O)N1C/C(=N/NC(=S)Nc1ccccc1)c1ccc(Cl)cc1Cl
IC50 (Trypanosoma cruzi [8]): 3.6 µM

O=C(Cn1cccc1[N+](=O)[O-])Nc1cccc(C(F)(F)F)c1
CC50 at 48 h [12]: 2.1 µM

CC1CCc2oc3c(c2C1)C(=O)C(=O)c1ccccc1-3 (stereo not given)
IC50 (Trypanosoma cruzi [6]): 0.074 µM

CCC1S/C(=N\N=C(/C)c2ccc(Cl)cc2Cl)NC1=O (stereo not given)
IC50 (Trypanosoma cruzi [10]): 2.57 µM

COC(=O)/C=C/c1ccc2c(c1)C(C(=O)OC)C(c1ccc(O)cc1)O2 (stereo not given)
IC50 (Trypanosoma cruzi [4]): 3.26 µM | IC50 (Trypanosoma cruzi [11]): 11.9 µM | CC50 at 48 h [12]: 49.9 µM

COc1ccc(/C(CN2C(=O)c3ccccc3C2=O)=N\Nc2nc(-c3ccc(OC)cc3)cs2)cc1
IC50 (Trypanosoma cruzi [8]): 4.48 µM

CC1CCc2oc3c(c2C1)C(=O)c1ccccc1C3=O (stereo not given)
IC50 (Trypanosoma cruzi [6]): 0.031 µM

Reference: ChEMBL document CHEMBL6109047, “Synthesis strategies and anti-parasitic evaluation of novel compounds for chagas disease: Advancing drug discovery through structure-activity relationships” (Eur J Med Chem, 2025)
